{"source": "patent US8802597B2", "about": "“Herbicidal pyrimidines” (E I du Pont de Nemours and Company, priority 2003, dated 2014)", "format_in_all_cases": "in vivo", "key": {"[1]": {"tested_on": "barnyardgrass (Echinochloa crus-galli)", "experiment": "Test A pre/postemergence", "method_in_brief": "(§1)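 Compared with untreated controls, treated plants were visually rated for injury on a 0 (none) to 100 (complete control) scale about ten days after spraying. Pre- and postemergence applications used one solvent/surfactant formulation; postemergence plants measured 2–10 cm.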"}, "[2]": {"tested_on": "crabgrass (Digitaria sanguinalis)", "experiment": "Test A pre/postemergence", "method_in_brief": "as §1"}, "[3]": {"tested_on": "giant foxtail (Setaria faberi)", "experiment": "Test A pre/postemergence", "method_in_brief": "as §1"}, "[4]": {"tested_on": "morningglory (Ipomoea spp.)", "experiment": "Test A pre/postemergence", "method_in_brief": "as §1"}, "[5]": {"tested_on": "redroot pigweed (Amaranthus retroflexus)", "experiment": "Test A pre/postemergence", "method_in_brief": "as §1"}, "[6]": {"tested_on": "velvetleaf (Abutilon theophrasti)", "experiment": "Test A pre/postemergence", "method_in_brief": "as §1"}, "[7]": {"tested_on": "Surinam grass (Brachiaria decumbens)", "experiment": "Test C pre/postemergence", "details": "for Plant response rating (scale of 0 to 100), Surinam Grass: Postemergence; for Plant response rating, Surinam Grass: Preemergence, scale 0 to 100, 0 no effect, 100 complete control", "method_in_brief": "(§2)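 Rating scale 0–100: 0 means no effect, 100 complete control; taken visually 12 to 14 days post-treatment versus controls. Pre- and postemergence greenhouse applications, postemergence at 1- to 4-leaf stage, non-phytotoxic solvent with surfactant as carrier.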"}, "[8]": {"tested_on": "crabgrass (Digitaria sanguinalis)", "experiment": "Test C pre/postemergence", "details": "for Plant response rating, Crabgrass: Preemergence", "method_in_brief": "as §2"}, "[9]": {"tested_on": "giant foxtail (Setaria faberii)", "experiment": "Test C pre/postemergence", "details": "for Plant response rating, Foxtail, Giant: Preemergence", "method_in_brief": "as §2"}, "[10]": {"tested_on": "yellow nutsedge (Cyperus esculentus)", "experiment": "Test C pre/postemergence", "details": "for Plant response rating, Nutsedge, Yellow: Preemergence, scale 0 to 100, 0 no effect, 100 complete control", "method_in_brief": "as §2"}, "[11]": {"tested_on": "chickweed (Stellaria media)", "experiment": "Test C postemergence", "method_in_brief": "as §2"}, "[12]": {"details": "Postemergence, 125 g ai/ha, 0 to 100 scale (0 no effect, 100 complete control)"}, "[13]": {"details": "Postemergence, 500 g ai/ha, 0 to 100 scale (0 no effect, 100 complete control)"}, "[14]": {"details": "Preemergence, 125 g ai/ha, 0 to 100 scale where 0 is no effect and 100 is complete control, approximately ten days"}, "[15]": {"details": "Preemergence, 500 g ai/ha, 0 to 100 scale where 0 is no effect and 100 is complete control, approximately ten days"}, "[16]": {"details": "Postemergence, 125 g ai/ha, scale 0 to 100 (0 no effect, 100 complete control)"}, "[17]": {"details": "16 g ai/ha, scale 0 to 100, 0 no effect, 100 complete control"}, "[18]": {"details": "31 g ai/ha, scale 0 to 100, 0 no effect, 100 complete control"}, "[19]": {"details": "62 g ai/ha, scale 0 to 100, 0 no effect, 100 complete control"}}}
{"smiles": "CCCCOC(=O)c1nc(C2CC2)nc(N)c1Cl", "note": "[Compound 76]", "values": [{"measurement": "Plant response rating, Barnyardgrass", "setting": "[1]; [12]", "value": 90}, {"measurement": "Plant response rating, Barnyardgrass", "setting": "[1]; [13]", "value": 90}, {"measurement": "Plant response rating, Barnyardgrass", "setting": "[1]; [14]", "value": 75}, {"measurement": "Plant response rating, Barnyardgrass", "setting": "[1]; [15]", "value": 90}, {"measurement": "Plant response rating, Crabgrass", "setting": "[2]; [12]", "value": 45}, {"measurement": "Plant response rating, Crabgrass", "setting": "[2]; [13]", "value": 70}, {"measurement": "Plant response rating, Crabgrass", "setting": "[2]; [14]", "value": 30}, {"measurement": "Plant response rating, Crabgrass", "setting": "[2]; [15]", "value": 75}, {"measurement": "Plant response rating, Foxtail, Giant", "setting": "[3]; [12]", "value": 90}, {"measurement": "Plant response rating, Foxtail, Giant", "setting": "[3]; [13]", "value": 90}, {"measurement": "Plant response rating, Foxtail, Giant", "setting": "[3]; [14]", "value": 70}, {"measurement": "Plant response rating, Foxtail, Giant", "setting": "[3]; [15]", "value": 85}, {"measurement": "Plant response rating, Morningglory", "setting": "[4]; [12]", "value": 90}, {"measurement": "Plant response rating, Morningglory", "setting": "[4]; [13]", "value": 95}, {"measurement": "Plant response rating, Morningglory", "setting": "[4]; [14]", "value": 100}, {"measurement": "Plant response rating, Morningglory", "setting": "[4]; [15]", "value": 100}, {"measurement": "Plant response rating, Pigweed", "setting": "[5]; [12]", "value": 85}, {"measurement": "Plant response rating, Pigweed", "setting": "[5]; [13]", "value": 95}, {"measurement": "Plant response rating, Pigweed", "setting": "[5]; [14]", "value": 80}, {"measurement": "Plant response rating, Pigweed", "setting": "[5]; [15]", "value": 90}, {"measurement": "Plant response rating, Velvetleaf", "setting": "[6]; [12]", "value": 80}, {"measurement": "Plant response rating, Velvetleaf", "setting": "[6]; [13]", "value": 100}, {"measurement": "Plant response rating, Velvetleaf", "setting": "[6]; [14]", "value": 90}, {"measurement": "Plant response rating, Velvetleaf", "setting": "[6]; [15]", "value": 100}, {"measurement": "Plant response rating (scale of 0 to 100), Surinam Grass", "setting": "[7]; 16 g ai/ha", "value": 60}, {"measurement": "Plant response rating (scale of 0 to 100), Surinam Grass", "setting": "[7]; 31 g ai/ha", "value": 70}, {"measurement": "Plant response rating (scale of 0 to 100), Surinam Grass", "setting": "[7]; 62 g ai/ha", "value": 95}, {"measurement": "Plant response rating, Surinam Grass", "setting": "[7]; 16 g ai/ha", "value": 0}, {"measurement": "Plant response rating, Surinam Grass", "setting": "[7]; 31 g ai/ha", "value": 0}, {"measurement": "Plant response rating, Surinam Grass", "setting": "[7]; 62 g ai/ha", "value": 0}, {"measurement": "Plant response rating (scale of 0 to 100), Crabgrass", "setting": "[8]; Postemergence, 16 g ai/ha", "value": 55}, {"measurement": "Plant response rating (scale of 0 to 100), Crabgrass", "setting": "[8]; Postemergence, 31 g ai/ha", "value": 75}, {"measurement": "Plant response rating (scale of 0 to 100), Crabgrass", "setting": "[8]; Postemergence, 62 g ai/ha", "value": 85}, {"measurement": "Crabgrass plant response rating", "setting": "[8]; [16]", "value": 90}, {"measurement": "Plant response rating, Crabgrass", "setting": "[8]; [17]", "value": 0}, {"measurement": "Plant response rating, Crabgrass", "setting": "[8]; [18]", "value": 0}, {"measurement": "Plant response rating, Crabgrass", "setting": "[8]; [19]", "value": 5}, {"measurement": "Plant response rating, Crabgrass", "setting": "[8]; 125 g ai/ha, scale 0 to 100", "value": 60}, {"measurement": "Plant response rating (scale of 0 to 100), Foxtail, Giant", "setting": "[9]; Postemergence, 16 g ai/ha", "value": 15}, {"measurement": "Plant response rating (scale of 0 to 100), Foxtail, Giant", "setting": "[9]; Postemergence, 31 g ai/ha", "value": 25}, {"measurement": "Plant response rating (scale of 0 to 100), Foxtail, Giant", "setting": "[9]; Postemergence, 62 g ai/ha", "value": 55}, {"measurement": "Foxtail, Giant plant response rating", "setting": "[9]; [16]", "value": 85}, {"measurement": "Plant response rating, Foxtail, Giant", "setting": "[9]; [17]", "value": 0}, {"measurement": "Plant response rating, Foxtail, Giant", "setting": "[9]; [18]", "value": 0}, {"measurement": "Plant response rating, Foxtail, Giant", "setting": "[9]; [19]", "value": 0}, {"measurement": "Plant response rating, Foxtail, Giant", "setting": "[9]; 125 g ai/ha, scale 0 to 100", "value": 10}, {"measurement": "Plant response rating (scale of 0 to 100), Nutsedge, Yellow", "setting": "[10]; Postemergence, 16 g ai/ha", "value": 10}, {"measurement": "Plant response rating (scale of 0 to 100), Nutsedge, Yellow", "setting": "[10]; Postemergence, 31 g ai/ha", "value": 30}, {"measurement": "Plant response rating (scale of 0 to 100), Nutsedge, Yellow", "setting": "[10]; Postemergence, 62 g ai/ha", "value": 40}, {"measurement": "Nutsedge, Yellow plant response rating", "setting": "[10]; [16]", "value": 60}, {"measurement": "Plant response rating, Nutsedge, Yellow", "setting": "[10]; 16 g ai/ha", "value": 0}, {"measurement": "Plant response rating, Nutsedge, Yellow", "setting": "[10]; 31 g ai/ha", "value": 0}, {"measurement": "Plant response rating, Nutsedge, Yellow", "setting": "[10]; 62 g ai/ha", "value": 0}, {"measurement": "Plant response rating (scale of 0 to 100), Chickweed", "setting": "[11]; 16 g ai/ha", "value": 35}, {"measurement": "Plant response rating (scale of 0 to 100), Chickweed", "setting": "[11]; 31 g ai/ha", "value": 45}, {"measurement": "Plant response rating (scale of 0 to 100), Chickweed", "setting": "[11]; 62 g ai/ha", "value": 70}, {"measurement": "Chickweed plant response rating", "setting": "[11]; 125 g ai/ha, scale 0 to 100 (0 no effect, 100 complete control)", "value": 95}]}
